For ten molecules, IC50 results are on record in ChEMBL document CHEMBL1150557, “Molecular design of novel PGI2 agonists without PG skeleton. I” (Bioorg Med Chem Lett, 1995).

Sequence of Prostacyclin receptor (P43119 whole entry): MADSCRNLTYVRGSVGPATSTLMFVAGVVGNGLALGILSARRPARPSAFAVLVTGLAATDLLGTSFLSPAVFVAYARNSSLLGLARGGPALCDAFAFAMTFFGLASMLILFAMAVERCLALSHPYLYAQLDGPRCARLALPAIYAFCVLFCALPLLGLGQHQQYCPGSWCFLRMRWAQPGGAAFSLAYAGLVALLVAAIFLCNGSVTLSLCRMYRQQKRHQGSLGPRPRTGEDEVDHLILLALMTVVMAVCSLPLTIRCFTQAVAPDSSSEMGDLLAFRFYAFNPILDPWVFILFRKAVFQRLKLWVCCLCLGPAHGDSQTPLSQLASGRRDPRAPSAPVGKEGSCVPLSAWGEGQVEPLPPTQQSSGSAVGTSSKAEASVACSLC

The first assay is filed under the species Homo sapiens. Kind of assay: Evaluated for inhibition of 4 uM ADP-induced human platelet aggregation. The format is functional, organism-based.
Turning to `O=C(O)COc1cccc2c1CCC(C/C=N/OC(c1ccccc1)c1ccccc1)C2` (configuration not stated), the IC50 turned out to be 1.1 µM.

As to `O=C(O)COc1cccc2c1CCCC2CC/C=N/OC(c1ccccc1)c1ccccc1` (configuration not stated), half-maximal inhibition (IC50) was put at 2.1 µM.

Another assay has as its target Prostacyclin receptor (Homo sapiens, UniProt P43119). Kind of assay: Prostaglandin I2 receptor binding by displacement of [3H]iloprost from human platelets.
As for `O=C(O)COc1cccc2c1CCC(C/C=C/C(O)Cc1ccccc1)C2` (configuration not stated), the IC50 came to 4.9 µM.

Molecule `CCCCCC(O)/C=C/CCCc1cccc(OCC(=O)O)c1` (configuration not stated) displayed an IC50 of 23 µM. Still for that read-out and setting: in the case of `O=C(O)COc1cccc2c1CCC(C/C=C\CC(c1ccccc1)c1ccccc1)C2` (configuration not stated) it was 3 µM. The same measure, in the same setting: the same measure for `CCCCCC(O)/C=C/CC1CCc2c(cccc2OCC(=O)O)C1` (configuration not stated): 7.8 µM; for `O=C(O)COc1cccc2c1CCC(C/C=C/CC(c1ccccc1)c1ccccc1)C2` (configuration not stated): 3.1 µM. `O=C(O)COc1cccc2c1CCC(C/C=C/CCc1ccccc1)C2` (configuration not stated) had an IC50 of 5.3 µM. As to `O=C(O)COc1cccc(CCC/C=N/OC(c2ccccc2)c2ccccc2)c1`, the IC50 was found to be 3.9 µM. Regarding `O=C(O)COc1cccc2c1CCC(C/C=N/OC(c1ccccc1)c1ccccc1)C2` (configuration not stated), the IC50 worked out at 0.65 µM. Molecule `O=C(O)COc1cccc2c1CCCC2CC/C=N/OC(c1ccccc1)c1ccccc1` (configuration not stated) displayed an IC50 of 0.6 µM. The IC50 values of the last two molecules are within 1.5-fold of each other. Same read-out and setting: in the case of `CCCCCC(O)/C=C/CCC1CCCc2c(OCC(=O)O)cccc21` (configuration not stated) it was 9.6 µM.
